Entries after “also recorded” stand apart in the source; their conditions may differ. Each block holds one compound with its values, some of them ahead of it.
Tests used:
P-glycoprotein (P-gp) [1] = target: T1, P-glycoprotein (P-gp) (Homo sapiens, UniProt P08183); assay: ATPase activity, varying drug concentration at constant ATP concentration (dose response); details: 300 mM disaccharide vs none; glycerol purified P-gp; two way ANOVA
Description: The assay was set up, conducted and read in conditions identical to those described above. […] The equation for the general dose response curve is given below (Equation 2).
Equation 2: The general dose response curve equation, where • V=rate of hydrolysis expressed as μmol/min/mg Pi, • Vmax=maximum rate of hydrolysis, • Vmin=minimum rate of hydrolysis, • [D]=concentration of drug, and • EC50=concentration of drug required to produce half maximum rate of hydrolysis.
The highest concentration was similar to that found in the reaction volume of an ATPase assay when a 20% (w/v) buffer was used (10 mM-300 mM). […] Both varying ATP and varying drug assays were performed.

[2] = target: T2, plasma membrane H+-ATPase (Kluyveromyces lactis, UniProt P49380); details: cited from earlier work
T2 sequence (P49380 1-899): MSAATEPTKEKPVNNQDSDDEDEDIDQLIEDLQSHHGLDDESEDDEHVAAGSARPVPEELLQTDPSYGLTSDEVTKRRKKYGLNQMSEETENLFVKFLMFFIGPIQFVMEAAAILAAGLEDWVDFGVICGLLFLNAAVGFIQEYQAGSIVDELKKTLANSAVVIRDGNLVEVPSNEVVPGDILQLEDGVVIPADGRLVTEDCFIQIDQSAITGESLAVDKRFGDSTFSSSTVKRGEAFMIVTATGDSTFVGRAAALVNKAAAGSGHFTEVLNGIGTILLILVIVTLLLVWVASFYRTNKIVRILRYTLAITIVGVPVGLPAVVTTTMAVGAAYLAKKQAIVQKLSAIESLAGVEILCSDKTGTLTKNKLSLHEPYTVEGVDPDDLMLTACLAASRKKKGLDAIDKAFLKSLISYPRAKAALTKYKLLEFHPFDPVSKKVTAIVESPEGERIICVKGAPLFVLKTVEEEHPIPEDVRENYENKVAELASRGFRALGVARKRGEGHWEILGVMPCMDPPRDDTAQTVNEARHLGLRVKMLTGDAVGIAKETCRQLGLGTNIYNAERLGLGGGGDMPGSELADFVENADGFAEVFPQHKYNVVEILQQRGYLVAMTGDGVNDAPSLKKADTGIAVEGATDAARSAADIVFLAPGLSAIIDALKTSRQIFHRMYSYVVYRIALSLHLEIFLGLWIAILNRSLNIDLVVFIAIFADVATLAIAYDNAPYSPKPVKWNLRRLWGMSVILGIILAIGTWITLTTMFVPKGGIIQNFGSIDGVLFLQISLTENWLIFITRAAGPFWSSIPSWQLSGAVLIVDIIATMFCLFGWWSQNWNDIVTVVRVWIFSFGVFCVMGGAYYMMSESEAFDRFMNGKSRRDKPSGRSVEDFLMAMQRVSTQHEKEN

P-glycoprotein (P-gp) [3] = target: T1, P-glycoprotein (P-gp); assay: ATPase activity, varying ATP concentration (Michaelis-Menten kinetics), colorimetric Pi release; type: biochemical; set-up: made in house; host or cells: Trichoplusia ni (High Five) insect cells, recombinant baculovirus; details: for Nicardipine stimulated Vmax / Effect of the disaccharide on nicardipine stimulated ATPase activity (Vmax): 30 μM nicardipine; for Nicardipine stimulated Vmax / Basal Vmax: glycerol purified P-gp, mean (SEM), n=4; for Basal Vmax / Effect of the disaccharide on basal ATPase activity: no drug; for Effect of the disaccharide on nicardipine stimulated ATPase activity (Vmax) / Effect of the disaccharide on basal ATPase activity: 10-300 mM disaccharide added to glycerol purified P-gp, two way ANOVA
Procedure: A colorimetric assay (Chifflet et al., 1988) was used to determine ATP hydrolysis via release of inorganic phosphate. P-gp activity was expressed as μmol Pi/min/mg protein.
A 0-20 nmol standard curve was set up using KH2PO4 as a source of Pi. Background Pi was measured using wells containing no protein or drug only ATP and ATPase buffer (50 mM Tris pH 7.4, 150 mM NH4Cl, 5 mM MgSO4, 0.02% (w/v) NaN3).
The plate was incubated for 20 minutes at 37° C. and the reaction quenched by rapid addition of 40 μl 12% (w/v) SDS to all wells. 100 μl of a 1:1 mixture of 6% (w/v) ascorbate in 1M HCl:1% (w/v) ammonium molybdate (prepared after the reaction had been quenched due to its sensitivity to light) was added to all wells and the plate was incubated for 5 minutes at room temperature. Finally, 100 μl 2% (w/v) sodium citrate/sodium metaarsentie/2% (v/v) acetic acid was added and the plate incubated at 37° C. for 15 minutes. The plate was then allowed to cool and the absorbance measured at a wavelength of 750 nm in a plate reader (SpectraMax 250, Molecular Devices/Multiskan Ascent). The amount of Pi released was calculated from the Pi standard curve and the ATPase activity of P-gp calculated.
The amount of protein (mg) in 20 μl was calculated from the protein concentration determined by BSA standard curve (see 1.2.8) allowing ATPase activity to be determined as μmol/min/mg protein. The Michaelis-Menten equation (Equation 1) was fitted to a graph of ATPase activity using non-linear least squares fit (GraphPad Prism 4.0).
Both varying ATP and varying drug assays were performed.

P-glycoprotein (P-gp) [4] = target: T1, P-glycoprotein (P-gp); assay: ATPase activity of P-gp proteoliposomes after freeze drying, rehydration and storage; type: biochemical; set-up: made in house; host or cells: Trichoplusia ni (High Five) insect cells, recombinant baculovirus; details: storage at 4° C. only
Procedure: All freeze drying was carried out using a CHRIST Alpha 2-4 (MartinChrist, Germany) with the condenser temperature set to −80° C. Initial experiments were performed with product in micro-centrifuge tubes. Later experiments were performed using 2 ml glass freeze drying vials and freeze drying injection stoppers in conjunction with a stoppering system. This permitted vials to be sealed under vacuum, thus avoiding moisture uptake from the atmosphere when the chamber pressure was raised to atmospheric. In all experiments the shelf was pre-cooled to −80° C. to avoid melting of products whilst the chamber was being evacuated to the required pressure.
In order for freeze drying to be considered successful P-gp must have at least retained ATPase activity on rehydration immediately after freeze drying. On completion of the freeze drying cycle the solid product cake was rehydrated with distilled water. The product vial was vortexed to ensure the dried product was completely dissolved and rehydrated. […]
P-gp proteoliposomes were freeze dried, sealed and stored at a range of temperatures (4° C., 20° C. and 37° C.) and ATPase activity was assessed at intervals up to 150 days. […]
Following rehydration of P-gp proteoliposomes the ATPase activity was measured as described earlier. Activity was assessed following storage at 4° C., 20° C. and 37° C. at intervals up to 30 days.

T1 sequence (P08183 whole entry): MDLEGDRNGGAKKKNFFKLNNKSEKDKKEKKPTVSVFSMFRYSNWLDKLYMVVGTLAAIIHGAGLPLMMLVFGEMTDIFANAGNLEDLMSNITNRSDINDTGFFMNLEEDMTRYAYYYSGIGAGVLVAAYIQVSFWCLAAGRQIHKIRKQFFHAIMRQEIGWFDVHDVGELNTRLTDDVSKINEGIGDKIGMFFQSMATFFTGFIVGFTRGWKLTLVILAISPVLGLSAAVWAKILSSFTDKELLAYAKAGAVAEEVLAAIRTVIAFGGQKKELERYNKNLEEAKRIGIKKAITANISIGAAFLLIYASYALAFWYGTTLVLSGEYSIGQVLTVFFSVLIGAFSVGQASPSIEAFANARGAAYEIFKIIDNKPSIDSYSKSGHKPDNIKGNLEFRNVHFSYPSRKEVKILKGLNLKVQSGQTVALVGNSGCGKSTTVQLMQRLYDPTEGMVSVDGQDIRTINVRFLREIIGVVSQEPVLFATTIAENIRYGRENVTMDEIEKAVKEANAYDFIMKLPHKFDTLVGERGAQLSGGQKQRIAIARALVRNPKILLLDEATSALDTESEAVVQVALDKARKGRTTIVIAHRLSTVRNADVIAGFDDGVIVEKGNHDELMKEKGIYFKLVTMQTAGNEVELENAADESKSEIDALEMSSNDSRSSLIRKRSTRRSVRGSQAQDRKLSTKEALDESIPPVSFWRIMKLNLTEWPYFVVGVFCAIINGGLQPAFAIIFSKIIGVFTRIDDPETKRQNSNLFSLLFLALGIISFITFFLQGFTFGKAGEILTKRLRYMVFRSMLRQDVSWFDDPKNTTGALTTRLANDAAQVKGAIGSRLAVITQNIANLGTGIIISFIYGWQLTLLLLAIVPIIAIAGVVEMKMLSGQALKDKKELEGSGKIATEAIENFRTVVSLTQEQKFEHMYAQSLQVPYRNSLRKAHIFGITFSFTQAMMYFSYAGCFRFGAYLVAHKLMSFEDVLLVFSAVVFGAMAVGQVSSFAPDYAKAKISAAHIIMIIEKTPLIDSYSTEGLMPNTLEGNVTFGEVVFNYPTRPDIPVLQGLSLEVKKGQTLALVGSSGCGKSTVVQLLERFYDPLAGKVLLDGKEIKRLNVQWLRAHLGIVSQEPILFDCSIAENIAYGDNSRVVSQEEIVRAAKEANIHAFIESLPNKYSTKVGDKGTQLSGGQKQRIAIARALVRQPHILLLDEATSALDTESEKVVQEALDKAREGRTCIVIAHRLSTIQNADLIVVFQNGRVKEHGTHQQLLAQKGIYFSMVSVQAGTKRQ

Structure (SMILES): OC[C@H]1O[C@H](O[C@H]2O[C@H](CO)[C@@H](O)[C@H](O)[C@H]2O)[C@H](O)[C@@H](O)[C@@H]1O [Trehalose, α-D-glucopyranosyl (1-1) α-D-glucopyranose]
Effect of the disaccharide on potency of nicardipine to stimulate ATPase activity (P-glycoprotein (P-gp) [1]): did not affect; also recorded: unaffected; also recorded: no significant difference | Effect on ATPase activity of plasma membrane H+-ATPase ([2]; 0.6 M to 0.8M trehalose, 20° C.): inhibit | Reduction in Vmax of plasma membrane H+-ATPase ([2]; high trehalose concentrations, 40° C.): negligible | Nicardipine stimulated Vmax (P-glycoprotein (P-gp) [3]; 10 mM trehalose): 4.7 (1.6) μmol/min/mg | Basal Vmax (P-glycoprotein (P-gp) [3]; 10 mM trehalose): 0.86 (0.67) μmol/min/mg | Nicardipine stimulated Vmax (P-glycoprotein (P-gp) [3]; 30 mM trehalose): 5.6 (2.3) μmol/min/mg | Basal Vmax (P-glycoprotein (P-gp) [3]; 30 mM trehalose): 0.63 (0.4) μmol/min/mg | Nicardipine stimulated Vmax (P-glycoprotein (P-gp) [3]; 100 mM trehalose): 4.9 (2.1) μmol/min/mg | Basal Vmax (P-glycoprotein (P-gp) [3]; 100 mM trehalose): 1.0 (0.86) μmol/min/mg | Nicardipine stimulated Vmax (P-glycoprotein (P-gp) [3]; 300 mM trehalose): 3.7 (1.3) μmol/min/mg | Basal Vmax (P-glycoprotein (P-gp) [3]; 300 mM trehalose): 0.7 (0.54) μmol/min/mg | Effect of the disaccharide on nicardipine stimulated ATPase activity (Vmax) (P-glycoprotein (P-gp) [3]): did not affect; also recorded: does not affect; also recorded: no significant difference | Effect of the disaccharide on basal ATPase activity (P-glycoprotein (P-gp) [3]): does not affect; also recorded: no significant difference

Nicardipine stimulated Vmax (P-glycoprotein (P-gp) [3]; 10 mM maltose): 1.7 (1.1) μmol/min/mg | Basal Vmax (P-glycoprotein (P-gp) [3]; 10 mM maltose): 0.1 (0.4) μmol/min/mg | Nicardipine stimulated Vmax (P-glycoprotein (P-gp) [3]; 30 mM maltose): 1.1 (0.6) μmol/min/mg | Basal Vmax (P-glycoprotein (P-gp) [3]; 30 mM maltose): 0.1 (0.1) μmol/min/mg | Nicardipine stimulated Vmax (P-glycoprotein (P-gp) [3]; 100 mM maltose): 1.0 (0.3) μmol/min/mg | Basal Vmax (P-glycoprotein (P-gp) [3]; 100 mM maltose): 0.1 (0.6) μmol/min/mg | Nicardipine stimulated Vmax (P-glycoprotein (P-gp) [3]; 300 mM maltose): 0.9 (0.4) μmol/min/mg | Basal Vmax (P-glycoprotein (P-gp) [3]; 300 mM maltose): 0.1 (0.2) μmol/min/mg | Time for which P-gp ATPase activity is preserved after freeze drying (P-glycoprotein (P-gp) [4]): ≤ 12 days
Structure (SMILES): OC[C@H]1O[C@H](O[C@H]2[C@H](O)[C@@H](O)[C@@H](O)O[C@@H]2CO)[C@H](O)[C@@H](O)[C@@H]1O [Maltose, α-D-glucopyranosyl (1-4) α-D-glucopyranose]
Effect of the disaccharide on nicardipine stimulated ATPase activity (Vmax) (P-glycoprotein (P-gp) [3]): no significant affect; also recorded: did not alter; also recorded: does not effect; also recorded: no significant difference | Effect of the disaccharide on basal ATPase activity (P-glycoprotein (P-gp) [3]): remained unchanged; also recorded: no significant difference
